Series [1] relates to HCC1806 cells. The series can be described thus: 5-day MTT endpoint viability assay, HCC1806.
Experimental: The following day, drugs were added as indicated and cells were cultured for 5 days. […] 100 μL 10% SDS, 0.01M HCl solution was then added to each well to dissolve the formazan crystals. Absorbance was measured with a spectrophotometer at 570 nm. % Viability=(Signal[sample]−Signal[DMN])/(Signal [DMSO]−Signal [DMN])×100 unless specifically noted. % Toxicity=100%−Viability. % Viability rescue=(Signal [sample, KIF18Ai]−Signal[WT, KIF18Ai])/(Signal[WT, DMSO]−Signal [WT, KIF18Ai])×100. Drug titration curves were derived using the equation for “[Inhibitor] vs. response−Variable slope (four-parameter)” in GraphPad Prism 7 for Mac OS X (GraphPad Software, La Jolla, USA).
Series [2] relates to panel of sensitive and insensitive cell lines (RPE1, MCF10A, HCT116, DLD1, MCF7, MDA-MB-157, HCC1806, HeLa, OVCAR-3, OVCAR-8). In words: 5-day MTT endpoint viability assay, cell line panel. It is filed as cell-based. The settings on record: sensitive cell lines co-treated with KIF18Ai and low doses of Reversine (30 nM, FIG. 9E). The text has this: To investigate the determinants of KIF18A dependency in cancer, we used AM-1882, a highly specific small molecule KIF18A inhibitor (KIF18Ai) developed by Amgen Inc^21,23. Treatment with KIF18Ai causes stable binding of the KIF18A motor domain to microtubules^23, leading to the relocation of KIF18A in mitosis from kinetochores to spindle poles in all the cell lines tested (FIG. 8a and FIG. 15a). This mis-localization phenocopies the effect of KIF18A loss^21, likely by blocking KIF18A-induced stabilization of microtubule plus ends^16. We examined the effect of KIF18Ai on cell viability using a 5-day endpoint assay performed with non-transformed cells (RPE1 and MCF10A) and a panel of colon (HCT116, DLD1), breast (MCF7, MDA-MB-157, HCC1806), and ovarian (HeLa, OVCAR-3, OVCAR-8) cancer cell lines (FIG. 8b,c and FIG. 15b).
(Formazan colour is commonly taken as a measure of viable cells.)

The test system of series [3] is HCC1806 cells. In words: mitotic duration and fate (slippage) by live-cell timelapse imaging of cells arrested with DMN. It is filed as cell-based. How it is done:
To define the capacity of KIF18Ai-resistant HCC1806 clonal lines to maintain the mitotic state, we arrested cells indefinitely in mitosis with the Eg5 inhibitor dimethylenastron (DMN) which causes spindle collapse and chronic SAC activation^28,29. We then monitored mitotic slippage by live-cell timelapse imaging.
Fluorescent cell lines were seeded into either 4-chamber, 35-mm glass-bottom culture dishes (Greiner), 4-well chamber slides (Ibidi), or 8-well chamber slides (Ibidi). The day of the experiment, cells were transferred to CO2-independent base medium (ThermoFischer) with the appropriate additives for each cell line and maintained at 37° C. in an environmental control station. Long-term time-lapse imaging was performed using a Deltavision Elite system (GE Healthcare) controlling a Scientific CMOS camera (pco.edge 5.5.). Images were acquired with an Olympus 40×1.4 NA oil objective. For general mitotic phenotypes, cells were treated as indicated, then images were captured every 5 min in 9×3 μm z-sections in respective fluorescent channels and by differential inference contrast. For CyclinB1-EYFP experiments, cells were treated as indicated, then images were captured every 2.5 min in 9×3 μm z-sections in respective fluorescent channels and by differential inference contrast. Phenotypic evaluation and intensity measurements were taken from maximum intensity projected 2D time-lapse images. Mitotic duration was calculated as the time taken from nuclear envelope breakdown to the onset of anaphase. Metaphase to anaphase duration was calculated as the time from the appearance of the last, uninterrupted metaphase plate to the onset of anaphase. Analysis of Cyclin B1-EYFP mitotic intensity was measured from NEBD through 30 min past anaphase using FIJI. Intensity traces were manually aligned to the metaphase to anaphase inflection point, then normalized in R. If traces never inflected, they were aligned to 30 min past NEBD.

Series [4] relates to breast and ovarian cancer cell lines (DNA barcoded human cancer cell lines). The series can be described thus: PRISM screen, 5-day cell growth assay of pooled DNA barcoded cancer cell lines. It is filed as cell-based. The settings on record: TP53 MUT cell lines, 5 days. How it is done:
FIG. 1 is a series of scatter plots of pooled barcoded cancer cell lines treated in a 5-day cell growth assay with DMSO or KIF18Ai C9 (8-point concentration range), relative abundance of unique cell line barcodes was measured to estimate cell viability. KIF18Ai C9 AUC values versus CIN features (whole genome doubling (WGD), ploidy, aneuploidy score (AS)) plus TP53 status in breast and ovarian cancer cell lines (n=58). Scatter plots show KIF18Ai C9 AUC versus CIN features plus TP53 status with mean AUC indicated for each group. Colored cell lines overlap with KIF18Ai C9 sensitivity in nonbarcoded screens. Dotted line indicates AUC value of 0.65. ** p=0.0037, *** p=0.0004 by unpaired t-test.
To investigate the anti-proliferative effects of KIF18A inhibitors, a PRISM (profiling relative inhibition simultaneously in mixtures) screen was conducted on a panel of DNA barcoded human cancer cell lines. Pooled cancer cell lines were treated with DMSO or increasing concentrations of KIF18A inhibitor, Compound C9, for 5 days, and then cell viability was determined by measuring the abundance for each unique DNA barcode. We divided the cell lines by CIN features (WGD, ploidy, aneuploidy score) and further subdivided them based on TP53 status. In the TP53^MUT cancer cell lines, we observed a significant enrichment for KIF18A inhibitor sensitivity in cell lines that were WGD+ with >2.1 ploidy (55%, 12 of 22 sensitive) relative to WGD− with ≤2.1 ploidy (21%, 4 of 19 sensitive) (p=0.0004).

Take `c1nc2nc(Nc3ccc(N4CCOCC4)cc3)nc(NC3CCCCC3)c2[nH]1` [Reversine]: the effect on cells entry in the series on HCC1806 cells [1] (higher concentrations of Reversine) is “toxic to cells”. The “rescue of KIF18Ai toxicity” value in the series on HCC1806 cells [1] (low doses of Reversine, WT and UBE2S overexpressing HCC1806 treated with KIF18Ai) was “potent rescue of KIF18Ai toxicity”; in series [2], “rescued KIF18Ai toxicity”. The “time to exit mitosis (all cells)” value with HCC1806 cells [3] (SAC function abolished with Reversine, compared with DMN arrest) is “less than an hour”.

In the case of `CC(C)(C)NS(=O)(=O)c1cccc(NC(=O)c2ccc(S(=O)(=O)NC(C)(C)C)cc2N2CCC3(CC2)CC3)c1` [Compound C9, 4-(N-(tert-butyl)sulfamoyl)-N-(3-(N-(tert-butyl)sulfamoyl)phenyl)-2-(6-azaspiro[2.5]octan-6-yl)benzamide], the “cell lines sensitive to KIF18A inhibitor” value came out at 55% in series [4] (WGD+ with >2.1 ploidy (12 of 22 sensitive)), 21% in series [4] (WGD− with ≤2.1 ploidy (4 of 19 sensitive)), 47% in series [4] (aneuploidy score >8 (16 of 34 sensitive)) and 0% in series [4] (aneuploidy score ≤8 (0 of 7 sensitive)).

Regarding `O=C1NC(=NCc2cccs2)S/C1=C\c1ccc2ncccc2c1` [RO-3306], the “rescue of viability in KIF18Ai-treated cells” value in the series with HCC1806 cells [1] (sub-saturating concentrations of RO-3306) was “robust rescue of viability”.

`CC1(C)CC(=O)C2=C(C1)NC(=S)NC2c1cccc(O)c1` (stereo not drawn) [DMN, dimethylenastron]: in the series with HCC1806 cells [3] (Cyclin B1 knockout HCC1806), the slippage rate was 93% and the “time spent in mitosis” value stood at 11 h. Moreover, in the series on HCC1806 cells [3] (HSET knockout HCC1806), the “rate of mitotic slippage” value is on record as 27% and the time in mitosis turned out to be 19 h. In the series on HCC1806 cells [3] (WT HCC1806), the cell death turned out to be 75%, the mitotic slippage stood at 25% and the “time in mitosis (average)” value came to 25 h. In the series on HCC1806 cells [3] (hypomorphic MAD1 HCC1806), the “rate of mitotic slippage” value came to 95% and the time in mitosis worked out at 23 h.
